Measured values from patent US5288758A, “New urea derivatives, their preparation and their application in therapy” (priority 1991, dated 1994).

Molecular target: acetylcholinesterase (Homo sapiens, UniProt P22303)
Assay: biochemical
Details: method of Ellman et al., Biochem. Pharmacol. 7, 88-95 (1961); read-out: Inhibition of acetylcholinesterase activity, IC50

Sequence of acetylcholinesterase (P22303 32-614): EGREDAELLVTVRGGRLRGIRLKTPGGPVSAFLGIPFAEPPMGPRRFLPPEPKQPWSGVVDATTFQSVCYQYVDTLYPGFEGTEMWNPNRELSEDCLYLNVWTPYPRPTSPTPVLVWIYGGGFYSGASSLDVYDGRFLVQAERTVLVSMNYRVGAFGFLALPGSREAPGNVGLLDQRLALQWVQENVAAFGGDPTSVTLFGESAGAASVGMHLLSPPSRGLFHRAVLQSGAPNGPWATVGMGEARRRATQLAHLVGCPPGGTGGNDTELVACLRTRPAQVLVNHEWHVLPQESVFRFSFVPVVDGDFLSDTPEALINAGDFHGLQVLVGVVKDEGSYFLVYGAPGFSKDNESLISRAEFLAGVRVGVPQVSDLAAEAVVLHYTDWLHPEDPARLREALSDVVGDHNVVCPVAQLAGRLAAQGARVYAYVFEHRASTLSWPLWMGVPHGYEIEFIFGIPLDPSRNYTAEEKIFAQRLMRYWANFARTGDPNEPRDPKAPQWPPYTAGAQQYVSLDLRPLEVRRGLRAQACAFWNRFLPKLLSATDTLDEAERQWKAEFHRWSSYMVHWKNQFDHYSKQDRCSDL

Row | Compound | IC50 [nM]
1 | CN(CCOCCNC(=S)NC(=O)c1ccc(Cl)cc1)Cc1ccccc1 [Compound 12] | 30
2 | CN(CCOCCNC(=S)NC(=O)c1ccc2ccccc2c1)Cc1ccccc1 [Compound 16] | 100
3 | CN(CCOCCNC(=S)NC(=O)c1cccc([N+](=O)[O-])c1)Cc1ccccc1 [Compound 13] | 15
4 | CN(CCOCCNC(=S)NC(=O)c1ccc(Cl)c(Cl)c1)Cc1ccccc1 [Compound 14] | 55
5 | COc1ccc(C(=O)NC(=S)NCCOCCN(C)Cc2ccccc2)cc1 [Compound 11] | 26
6 | CN(CCCCCNC(=S)NC(=O)c1ccccc1)CC1CCCCC1 [Compound 5, 1-Benzoyl-3-[5-(N-cyclohexylmethyl-N-methylamino)pentyl]thiourea] | 50
